# Assay results reported in patent publication EP4813403A1, “USE OF GLP-1R/GIPR DOUBLE-TARGET AGONIST IN PREPARING ANIMAL DRUG” (Hangzhou Zhongmeihuadong Pharmaceutical Co., Ltd., priority 2023, dated 2025).
# Legend:
# human GIP Receptor = molecular target: T1, human GIP Receptor (Homo sapiens, UniProt P48546); assay: In vitro binding activity to human GIP receptor ([125I]GIP displacement, crude cell membranes); conditions: ratio of the Ki value of the endogenous ligand to the Ki value of the test compound; larger ratio = stronger binding
# T1 construct: expressed in transfected cells
# T1 sequence (P48546 22-466): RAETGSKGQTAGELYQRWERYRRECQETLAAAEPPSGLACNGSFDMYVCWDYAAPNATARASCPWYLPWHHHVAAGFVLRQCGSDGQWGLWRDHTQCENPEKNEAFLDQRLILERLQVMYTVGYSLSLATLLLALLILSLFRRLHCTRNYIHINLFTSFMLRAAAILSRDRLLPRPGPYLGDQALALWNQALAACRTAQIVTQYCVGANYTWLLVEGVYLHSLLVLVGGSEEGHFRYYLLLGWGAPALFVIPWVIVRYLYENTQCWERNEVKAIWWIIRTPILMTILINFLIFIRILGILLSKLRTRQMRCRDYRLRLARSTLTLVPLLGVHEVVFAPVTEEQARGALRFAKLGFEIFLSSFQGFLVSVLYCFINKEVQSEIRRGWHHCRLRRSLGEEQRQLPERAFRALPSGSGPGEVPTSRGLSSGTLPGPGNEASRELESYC
# Procedure: (§1) 89 µL of membrane dissolved in binding buffer (50 mM Hepes, pH 7.4, 5 mM MgCl2 , 5 mM EDTA, 0.005% TWEEN, 0.005% HSA) was transferred to a 96-well test plate (5 µg/well). The compound was serially diluted in DMSO, and then, 1 µL of the diluted compound or 100% DMSO was added to the test plate containing the membrane solution. 10 µL of [^125I] […] The test plate was left at room temperature for 90 minutes. The membrane complexes were harvested into a GF/B plate pre-coated with 0.5% PEI by using a Cell Harvester, and washed for 3 times with 500 µL of pre-cooled elution buffer (50 mM Hepes, pH 7.4, 500 mM NaCl) at 4°C. After drying at 37°C for 2 hours, 50 µL of scintillation fluid was added to each well. The plate was read with a MicroBeta2 scintillation counter after sealing and settling for at least 1 hour so as to determine the membrane bound radioligand level.
# hGIP and the compound of the present invention were dissolved in DMSO and stored at -80°C. 98 µL of membrane dissolved in binding buffer (50 mM HEPES pH 7.4, 5 mM MgCl2, 1 mM CaCl2, 0.1% BSA, 0.005% Tween-20) was transferred to a 96-well test plate (15 µg/well). The compound was serially diluted in DMSO, and then, 2 µL of the diluted compounds or 100% DMSO was added to the test plate containing the membrane solution. […] The test plate was left at room temperature for 90 minutes. The membrane complexes were harvested into a GF/B plate pre-coated with 0.5% PEI by using a Cell Harvester, and washed for 3 times with 500 µL of pre-cooled elution buffer (50 mM Tris-HCl pH 7.4, 125 mM NaCl) at 4°C. After drying at 37°C for 2 hours, 50 µL of scintillation fluid was added to each well. The plate was read with a MicroBeta2 scintillation counter after sealing and settling for at least 1 hour so as to determine the membrane bound radioligand level.
# The IC50 concentration was converted to Ki (Ki was the inhibition constant) using the Cheng-Prusoff equation. Table 1. Receptor Binding Affinity, Ki Ratio
# [1] = Pharmacokinetics following single administration in SD rats; conditions: male, Sprague-Dawley, rat, in vivo, sc
# Procedure: The compound was administrated to male SD rats (230-268 g, n=3) at a dose of 50.0 nmol/kg (s.c.) or 25.0 nmol/kg (i.v.). […] 30.0 μL of thawed plasma sample was taken. 150 μL of acetonitrile solution (containing 5 ng·mL^-1 Verapamil , 50 ng·mL^-1 Glibenclamide, 200 ng·mL^-1 Tolbutamide and 200 ng·mL^-1 Diclofenac) were added to precipitate protein. The mixture was vortexed for 5 minutes, and centrifuged at 3700 rpm for 8 minutes. 70.0 μL of the supernatant was taken, into which 70.0 μL of 0.5% aqueous formic acid solution was added. The mixture was vortexed for 5 minutes. 15 μL of the mixture solution was sampled and injected into the LC-MS/MS to determine the drug concentration in plasma. 20.0 μL of thawed plasma sample was taken. 60 μL of acetonitrile solution (containing 5 ng·mL^-1 Verapamil, 50 ng·mL^-1 Glibenclamide, 200 ng·mL^-1 Tolbutamide and 200 ng·mL^-1 Diclofenac) were added to precipitate protein. […] The mixture was vortexed for 10 minutes. 10.0 μL of the mixture solution was sampled and injected into the LC-MS/MS to determine the drug concentration in plasma. 30.0 μL of thawed plasma sample was taken. 150 μL of acetonitrile solution (containing 5 ng·mL^-1 Verapamil, 50 ng·mL^-1 Glibenclamide, 200 ng·mL^-1 Tolbutamide and 200 ng·mL^-1 Diclofenac) were added to precipitate protein. The mixture was vortexed for 5 minutes, and centrifuged at 3700 rpm for 8 minutes. 70.0 μL of the supernatant was taken, into which 70.0 μL of 0.5% aqueous formic acid solution was added. The mixture was vortexed for 5 minutes. 10.0 μL of the mixture solution was sampled and injected into the LC-MS/MS to determine the drug concentration in plasma. […] Table 5 Pharmacokinetic Parameters after Subcutaneous Injection of Different Polypeptide Compounds to Rats
# db/db mice = assay: Pharmacodynamic effects in db/db mice, single subcutaneous administration (blood glucose); format: in vivo; conditions: single s.c. 10 nmol/kg
# Procedure: In this study, 8-9 week old male db/db mice were used. The db/db mice were placed in an individual ventilated cage (IVC) facility with a controlled temperature (20-26°C) and humidity (40-70%) and a controlled 12h:12 h light-dark cycle. The mice can receive food and water ad libitum. Blood was sampled at the tail tip, and the random base blood glucose was measured by a Roche blood glucose meter. The mice were randomly divided into groups according to the random initial fasting blood glucose and initial body weight (n=6/group), and each group had similar body weight and blood glucose.
# After a single subcutaneous administration, the random base blood glucoses were recorded at the set time point (0 to 120 hours, the recording of the random base blood glucose was stopped until there was no difference between the random base blood glucose of the compound and that of the vehicle group), and the daily body weight and food intake were also recorded. The data results were statistically analyzed using GraphPad Prism8, and the statistical differences among the groups were analyzed following a T-Test. Significant differences were identified at p<0.05.
# Hypoglycemic Duration: the longest time during which the random base blood glucose of the compound has a significant difference (p<0.05) vs. the vehicle group. Table 13. Hypoglycemic Duration of the Compounds
# human GLP-1R = human GLP-1R (Homo sapiens, UniProt P43220); assay: In vitro binding activity to human GLP-1 receptor ([125I]GLP-1 displacement, crude cell membranes); parameters: expressed in transfected cells; conditions: ratio of the Ki value of the endogenous ligand to the Ki value of the test compound; larger ratio = stronger binding
# Procedure: as §1
# The IC50 concentration was converted to Ki (Ki was the inhibition constant) using the Cheng-Prusoff equation.
# Sequence of human GLP-1R (P43220 24-463): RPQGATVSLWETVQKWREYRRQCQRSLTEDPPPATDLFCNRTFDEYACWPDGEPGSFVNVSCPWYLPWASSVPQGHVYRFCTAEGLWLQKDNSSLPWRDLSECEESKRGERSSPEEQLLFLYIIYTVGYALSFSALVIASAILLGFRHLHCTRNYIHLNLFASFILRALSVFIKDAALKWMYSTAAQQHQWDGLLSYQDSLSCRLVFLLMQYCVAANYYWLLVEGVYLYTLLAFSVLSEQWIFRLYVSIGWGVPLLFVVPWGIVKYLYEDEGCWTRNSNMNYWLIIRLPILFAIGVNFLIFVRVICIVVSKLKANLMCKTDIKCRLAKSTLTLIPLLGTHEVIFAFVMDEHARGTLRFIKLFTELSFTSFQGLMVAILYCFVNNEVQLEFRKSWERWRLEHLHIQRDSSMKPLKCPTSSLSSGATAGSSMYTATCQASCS
smiles,measurement,setting,value
CC[C@H](C)[C@H](NC(=O)C(C)(C)NC(=O)[C@H](Cc1ccc(O)cc1)NC(=O)[C@H](CC(=O)O)NC(=O)[C@H](CO)NC(=O)[C@@H](NC(=O)C(C)(Cc1ccccc1)NC(=O)[C@@H](NC(=O)CNC(=O)[C@H](CCC(=O)O)NC(=O)C(C)(C)NC(=O)[C@@H](N)Cc1ccc(O)cc1)[C@@H](C)O)[C@@H](C)O)C(=O)NC(C)(C)C(=O)N[C@@H](CC(C)C)C(=O)N[C@@H](CC(=O)O)C(=O)N[C@@H](CCCCN)C(=O)N[C@@H](CCC(N)=O)C(=O)N[C@@H](C)C(=O)N[C@@H](CCC(N)=O)C(=O)N[C@@H](C)C(=O)N[C@@H](CCC(=O)O)C(=O)N[C@@H](Cc1ccccc1)C(=O)N[C@H](C(=O)N[C@@H](CCCCN)C(=O)N[C@@H](Cc1c[nH]c2ccccc12)C(=O)N[C@@H](CC(C)C)C(=O)N[C@@H](CC(C)C)C(=O)N[C@@H](CCCCNC(=O)COCCOCCNC(=O)COCCOCCNC(=O)COCCOCCNC(=O)CC[C@H](NC(=O)CCCCCCCCCCCCCCCCC(=O)O)C(=O)O)C(=O)NCC(=O)NCC(=O)N1CCC[C@H]1C(=O)N[C@@H](CO)C(=O)N[C@@H](CO)C(=O)NCC(=O)N[C@@H](C)C(=O)N1CCC[C@H]1C(=O)N1CCC[C@H]1C(=O)N1CCC[C@H]1C(=O)N[C@@H](CO)C(=O)N[C@@H](CCCCN)C(N)=O)C(C)C (some centres unmarked) [Compound P019],GIPR Ki ratio,human GIP Receptor,0.09
same,Tmax,[1],13.3 ± 9.24 h
same,half-life,[1],10.9 ± 1.92 h
same,"inhibition of the blood glucose AUC, times of that of P001",db/db mice,2.2 times
same,Hypoglycemic Duration,"db/db mice; Group 1, longest time with p<0.05 vs. vehicle",56 h
same,GLP-1R Ki ratio,human GLP-1R,0.93
CC[C@H](C)[C@H](NC(=O)C(C)(C)NC(=O)[C@H](Cc1ccc(O)cc1)NC(=O)[C@H](CC(=O)O)NC(=O)[C@H](CO)NC(=O)[C@@H](NC(=O)C(C)(Cc1ccccc1)NC(=O)[C@@H](NC(=O)CNC(=O)[C@H](CCC(=O)O)NC(=O)C(C)(C)NC(=O)[C@@H](N)Cc1ccc(O)cc1)[C@@H](C)O)[C@@H](C)O)C(=O)NC(C)(C)C(=O)N[C@@H](CC(C)C)C(=O)N[C@@H](CC(=O)O)C(=O)N[C@@H](CCCCN)C(=O)N[C@@H](CCC(N)=O)C(=O)N[C@@H](C)C(=O)N[C@@H](CCC(N)=O)C(=O)N[C@@H](C)C(=O)N[C@@H](CCC(=O)O)C(=O)N[C@@H](Cc1ccccc1)C(=O)N[C@H](C(=O)N[C@@H](CCCCNC(=O)COCCOCCNC(=O)COCCOCCNC(=O)CC[C@H](NC(=O)CCCCCCCCCCCCCCCCCCC(=O)O)C(=O)O)C(=O)N[C@@H](Cc1c[nH]c2ccccc12)C(=O)N[C@@H](CC(C)C)C(=O)N[C@@H](CC(C)C)C(=O)N[C@@H](CCCCN)C(=O)NCC(=O)NCC(=O)N1CCC[C@H]1C(=O)N[C@@H](CO)C(=O)N[C@@H](CO)C(=O)NCC(=O)N[C@@H](C)C(=O)N1CCC[C@H]1C(=O)N1CCC[C@H]1C(=O)N1CCC[C@H]1C(=O)N[C@@H](CO)C(=O)N[C@@H](CCCCN)C(N)=O)C(C)C (some centres unmarked) [Compound P013],GIPR Ki ratio,human GIP Receptor,0.14
same,Tmax,[1],24 h
same,half-life,[1],15 ± 0.737 h
same,Hypoglycemic Duration,"db/db mice; Group 2, longest time with p<0.05 vs. vehicle",72 h
same,GLP-1R Ki ratio,human GLP-1R,0.28
